Results on 35 compounds are retold here after US20170037008A1, “PHENYL BENZYL ETHER DERIVATIVE AND PREPARATION METHOD AND APPLICATION THEREOF” (BEIJING ZHIBO BIO-MEDICAL TECHNOLOGY CO., LTD, priority 2013, published 2017).

The target of one data set is T1, Aβ1-42 aggregates (Homo sapiens, UniProt P05067).
T1 construct: Preparing receptor Aβ1-42 proteins according to the existing method
Nature of the data set: In-vitro competitive binding experiments (Ki determination) with Aβ1-42 aggregates. Particulars: for affinity with the Aβ1-42 aggregates compared with IMPY and PIB: competitive binding experiments. The procedure: Binding reaction occurs between Aβ1-42 aggregate proteins with certain concentration and radioactive ligands [^125I] […] 4, the compounds are separated after balancing, and the inhibition constant (Ki) is calculated by determining radioactivity.
(1) Preparing 4 l of PBS (0.2M) buffer solution with pH=7.4;
(2) Preparing radioligand [^125]
(3) Preparing the compounds to be determined into 10^−3 to 10^−9 mol/L continuously diluted ethanol solution;
(4) Preparing receptor Aβ1-42 proteins according to the existing method and diluting the proteins into 30 nM water solution;
(5) Soaking a glass fiber filter membrane in PBS solution containing 0.1% (volume fraction) polyethyleneimine for 0.5 h;
(6) Respectively adding 100 μl of solution of compounds with different concentration and to be determined, 100 μl of [^125I]
(7) Oscillating and incubating for 2 h in 37° C. constant-temperature water bath;
(8) Collecting reaction liquid by using a multi-head cell collector, and washing the reaction liquid for three times by using PBS, 3 ml per time;
(9) Measuring and counting by using a γ counter; and […]

Data set [1] is described as follows: Biological distribution in bodies of normal mice. Type of data set: in vivo, mice (ICR). Particulars: caudal vein injection. An excerpt:
Through in-vivo distribution experiments, pharmacokinetic features, especially initial bran intake and brain removal situations of ^18F or ^125I labeled compounds in the bodies of mice are studied. […] Data are expressed in radioactive percentage dosage per organ (% ID/organ) and radioactive percentage dosage per gram of organ (% ID/g).

Another data set is described as follows: logD of labeled ligands. The class given is physicochemical.
[2] abbreviates: competition against radioligand [^125I] IMPY, Aβ1-42 aggregates, 37° C., 2 h.

Read-outs that look alike come from different tables or passages of the source. A value given as a limit tells only on which side of the number the result lay.

T1 sequence (P05067 672-713 limits assumed): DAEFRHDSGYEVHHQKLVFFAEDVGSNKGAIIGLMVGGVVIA

One may read the Ki as the equilibrium dissociation constant of an inhibitor or competing ligand from its target. Lower therefore signals higher affinity. On Aβ1-42 aggregates, `Nc1ccc(OCc2ccc(I)cc2)cc1` [Compound 16, 4-(4-iodobenzyloxy) aniline] yielded a Ki of 484 ± 53.2 nM.

`Ic1ccc(COc2ccc(I)cc2)cc1` [Compound 13, 1-iodo-4-(4-iodobenzyloxy) benzene]: at Aβ1-42 aggregates, the Ki came to 25.9 ± 2.4 nM; the “affinity with the Aβ1-42 aggregates compared with IMPY and PIB” value (shortened to “affinity … compared with IMPY and PIB”) is “higher than that of the known compounds IMPY and PIB”.

On Aβ1-42 aggregates, `COc1cccc(OCc2ccc(I)cc2)c1` [Compound 5, 1-(4-iodobenzyloxy)-3-methoxybenzene] showed a Ki of 154 ± 5.6 nM.

`COc1ccc(SCc2ccc(I)cc2)cc1` [Compound 25, (4-iodobenzyl) (4-methoxyphenyl) sulfane] returned a Ki on Aβ1-42 aggregates of 627 ± 129 nM.

Regarding `CN(C)c1ccc(-c2cn3cc([125I])ccc3n2)cc1` [[^125I]IMPY, reference compound], the Blood was found to be 3.85 ± 0.53 % ID/g in data set [1] (2 min), 2.81 ± 0.33 % ID/g in data set [1] (10 min), 1.50 ± 0.20 % ID/g in data set [1] (30 min) and 1.03 ± 0.10 % ID/g in data set [1] (60 min). The Brain in data set [1] (2 min) is on record as 5.05 ± 0.38 % ID/g; in data set [1] (10 min) it was 1.80 ± 0.12 % ID/g; in data set [1] (30 min), 0.67 ± 0.15 % ID/g; in data set [1] (60 min) it was 0.45 ± 0.07 % ID/g. In addition, the Thyroid in data set [1] (2 min) was found to be 0.12 ± 0.05 % ID/organ; in data set [1] (10 min), 0.09 ± 0.03 % ID/organ; in data set [1] (30 min), 0.22 ± 0.08 % ID/organ; in data set [1] (60 min), 0.30 ± 0.09 % ID/organ.

Take `Clc1ccc(OCc2ccc(I)cc2)cc1` [Compound 11, 1-chloro-4-(4-iodobenzyloxy) benzene]: at Aβ1-42 aggregates, the Ki is 22.3 ± 2.6 nM; the “affinity … compared with IMPY and PIB” value is “higher than that of the known compounds IMPY and PIB”.

With `COc1ccc(OCc2ccc(OCCF)cc2)cc1` [Compound 44a, 1-(2-fluoroethoxy)-4-((4-methoxyphenoxy)methyl) benzene], the Ki on Aβ1-42 aggregates amounted to 167 ± 34.5 nM.

Take `CN(C)c1ccc(OCc2ccc(OCCF)cc2)cc1` [Compound 47, 4-(4-(2-fluoroethoxy)benzyloxy)-N,N-dimethylaniline]: at Aβ1-42 aggregates, the affinity, expressed as Ki, was 23 ± 5.3 nM; the “affinity … compared with IMPY and PIB” value is “higher than that of the known compounds IMPY and PIB”.

On to `COc1ccc(OCc2ccc([125I])cc2)cc1` [[^125I]4], for which the Blood was 3.03 ± 0.54 % ID/g in data set [1] (2 min), 3.32 ± 0.65 % ID/g in data set [1] (10 min), 2.56 ± 0.93 % ID/g in data set [1] (30 min) and 1.70 ± 0.50 % ID/g in data set [1] (60 min). Moreover, the Brain was found to be 6.18 ± 0.99 % ID/g in data set [1] (2 min), 3.54 ± 0.35 % ID/g in data set [1] (10 min), 0.88 ± 0.15 % ID/g in data set [1] (30 min) and 0.38 ± 0.05 % ID/g in data set [1] (60 min). Moreover, the Thyroid in data set [1] (2 min) came to 0.14 ± 0.04 % ID/organ; in data set [1] (10 min), 0.12 ± 0.04 % ID/organ; in data set [1] (30 min), 0.08 ± 0.01 % ID/organ; in data set [1] (60 min) it was 0.11 ± 0.02 % ID/organ. Moreover, the logD result in the data set “logD of labeled ligands” is “[^125I]4 (logD = 4.00 ± 0.08)”.

On to `CN(C)c1ccc(OCc2ccc(I)cc2)cc1` [Compound 22, 4-(4-iodobenzyloxy)-N,N-dimethylaniline], for which, on Aβ1-42 aggregates, the Ki turned out to be 20.9 ± 1.8 nM; the “affinity … compared with IMPY and PIB” value was “higher than that of the known compounds IMPY and PIB”.

Take `FCCOc1ccc(COc2ccc([125I])cc2)cc1` [[^125I]35a]: the Blood in data set [1] (2 min) is listed as 4.96 ± 0.35 % ID/g; in data set [1] (10 min) it was 3.88 ± 0.79 % ID/g; in data set [1] (30 min), 3.89 ± 0.53 % ID/g; in data set [1] (60 min), 3.01 ± 1.07 % ID/g. Also, the Brain in data set [1] (2 min) is recorded as 5.27 ± 0.98 % ID/g; in data set [1] (10 min), 2.28 ± 0.27 % ID/g; in data set [1] (30 min), 0.81 ± 0.06 % ID/g; in data set [1] (60 min) it was 0.37 ± 0.06 % ID/g. Also, the Thyroid in data set [1] (2 min) was determined as 0.13 ± 0.02 % ID/organ; in data set [1] (10 min), 0.13 ± 0.01 % ID/organ; in data set [1] (30 min), 0.19 ± 0.04 % ID/organ; in data set [1] (60 min), 0.34 ± 0.10 % ID/organ. In addition, the logD entry in “logD of labeled ligands” is “[^125I]35a (logD = 2.50 ± 0.23)”.

As for `CNc1ccccc1OCc1ccc(I)cc1` [Compound 21, 2-(4-iodobenzyloxy)-N-methylaniline], the Ki at Aβ1-42 aggregates is more than 20000 nM.

`CN(C)c1ccc(CNc2ccc(I)cc2)cc1` [Compound 67, 4-(((4-iodophenyl)amino)methyl)-N,N-dimethylaniline] showed a Ki at Aβ1-42 aggregates of 124 ± 14.3 nM.

Take `COc1ccc(COc2ccc(OCCOCCOCC[18F])cc2)cc1` [[^18F] 53b]: the Blood was found to be 3.95 ± 0.34 % ID/g in data set [1] (2 min), 4.14 ± 0.91 % ID/g in data set [1] (10 min), 3.40 ± 0.25 % ID/g in data set [1] (30 min) and 2.36 ± 0.66 % ID/g in data set [1] (60 min). For the same compound, the Bone in data set [1] (2 min) is recorded as 1.36 ± 0.35 % ID/organ; in data set [1] (10 min) it was 1.22 ± 0.42 % ID/organ; in data set [1] (30 min) it was 1.39 ± 0.54 % ID/organ; in data set [1] (60 min) it was 1.52 ± 0.27 % ID/organ. Besides, the Brain amounted to 9.71 ± 1.31 % ID/g in data set [1] (2 min), 2.52 ± 0.20 % ID/g in data set [1] (10 min), 1.39 ± 0.10 % ID/g in data set [1] (30 min) and 1.07 ± 0.10 % ID/g in data set [1] (60 min). Further, the logD entry in “logD of labeled ligands” was “[^18F] 53b (logD = 3.04 ± 0.04)”.

Consider `CNc1ccc(OCc2ccc(I)cc2)cc1` [Compound 19, 4-(4-iodobenzyloxy)-N-methylaniline], for which affinity at Aβ1-42 aggregates was put at a Ki of 57 ± 5.1 nM.

Consider `COc1ccc(OCc2ccc(I)cc2)cc1` [Compound 4, 1-iodo-4-((4-methoxyphenoxy)methyl) benzene], for which, on Aβ1-42 aggregates, the Ki came out at 28.7 ± 8 nM; the “affinity … compared with IMPY and PIB” value is “higher than that of the known compounds IMPY and PIB”.

`FCCOc1ccc(COc2ccc(I)cc2)cc1` [Compound 35a, 1-(2-fluoroethoxy)-4-((4-iodophenoxy)methyl) benzene]: on Aβ1-42 aggregates, the affinity corresponds to a Ki of 23 ± 3.3 nM; the “affinity … compared with IMPY and PIB” value is “higher than that of the known compounds IMPY and PIB”.

`Nc1ccccc1OCc1ccc(I)cc1` [Compound 18, 2-(4-iodobenzyloxy) aniline] gave a Ki on Aβ1-42 aggregates of 1220 ± 58 nM.

The compound `COc1ccc(COc2ccc(OCCF)cc2)cc1` [Compound 53a, 1-(2-fluoroethoxy)-4-(4 methoxybenzyloxy) benzene] came in with a Ki at Aβ1-42 aggregates of 465 ± 18.8 nM.

Turning to `Fc1ccc(OCc2ccc(I)cc2)cc1` [Compound 10, 1-fluoro-4-(4-iodobenzyloxy) benzene], the Ki at Aβ1-42 aggregates was 127 ± 18.2 nM.

On Aβ1-42 aggregates, `COc1ccc(COc2ccc(I)cc2)cc1` [Compound 24, 1-iodo-4-(4-methoxybenzyloxy) benzene] had a Ki of 58.5 ± 3.5 nM.

Regarding `Oc1ccccc1OCc1ccc(I)cc1` [Compound 9, 2-(4-iodobenzyloxy) phenol], affinity at Aβ1-42 aggregates was put at a Ki of 3350 ± 611 nM.

The compound `COc1ccccc1OCc1ccc(I)cc1` [Compound 6, 1-(4-iodobenzyloxy)-2-methoxybenzene] registered a Ki at Aβ1-42 aggregates of 6110 ± 458 nM. This Ki lies about 1.8-fold higher than the previous one.

For the compound `FCCOc1ccc(COc2cccnc2I)cc1` [Compound 65], the Ki at Aβ1-42 aggregates (setting [2]) was 2080 ± 458 nM.

In turn, `O=c1ccc(I)cn1Cc1ccc(I)cc1` [Compound 58] showed a Ki on Aβ1-42 aggregates (setting [2]) of 1060 nM. Compared with the last compound, the Ki is about 2-fold lower.

The compound `CC(C)(C)c1ccc(OCc2ccc(I)cc2)cc1` [Compound 15, 1-tert-butyl-4-(4-iodobenzyloxy) benzene] came in with a Ki on Aβ1-42 aggregates of 139 ± 20.9 nM.

Take `FCCOc1ccc(OCc2ccc(I)cc2)cc1` [Compound 31a, 1-(2-fluoroethoxy)-4-((4-iodobenzyl)oxy) benzene]: on Aβ1-42 aggregates, the Ki turned out to be 24.1 ± 8.8 nM; the “affinity … compared with IMPY and PIB” value is “higher than that of the known compounds IMPY and PIB”.

As for `Brc1ccc(OCc2ccc(I)cc2)cc1` [Compound 12, 1-bromo-4-(4-iodobenzyloxy) benzene], on Aβ1-42 aggregates, the affinity corresponds to a Ki of 14.1 ± 1.2 nM; the “affinity … compared with IMPY and PIB” value was “higher than that of the known compounds IMPY and PIB”.

With `Nc1cccc(OCc2ccc(I)cc2)c1` [Compound 17, 3-(4-iodobenzyloxy) aniline], the affinity on Aβ1-42 aggregates, expressed as Ki, was 1810 ± 189 nM.

For the compound `CN(C)c1cccc(OCc2ccc(I)cc2)c1` [Compound 23, 3-(4-iodobenzyloxy)-N,N-dimethylaniline], on Aβ1-42 aggregates, the Ki worked out at 1060 ± 104 nM.

`Oc1ccc(OCc2ccc(I)cc2)cc1` [Compound 7, 4-(4-iodobenzyloxy) phenol] gave a Ki at Aβ1-42 aggregates of 134 ± 28.1 nM.

Compound `Ic1ccc(COc2ccccc2)cc1` [Compound 14, 1-iodo-4-(phenoxymethyl) benzene] yielded a Ki on Aβ1-42 aggregates of 93.9 ± 6.1 nM.

`CNc1cccc(OCc2ccc(I)cc2)c1` [Compound 20, 3-(4-iodobenzyloxy)-N-methylaniline]: the Ki at Aβ1-42 aggregates is 702 ± 92.4 nM.

In the case of `Oc1cccc(OCc2ccc(I)cc2)c1` [Compound 8, 3-(4-iodobenzyloxy) phenol], the Ki at Aβ1-42 aggregates was found to be 456 ± 135 nM.

Compound `CNc1ccc(OCc2ccc(OCCF)cc2)cc1` [Compound 46, 4-(4-(2-fluoroethoxy)benzyloxy)-N-methylaniline] displayed a Ki at Aβ1-42 aggregates of 460 ± 82 nM.
